# In patent US20220387358A1, “CERAMIDE ANALOG SACLAC MODULATES SPHINGOLIPID LEVELS AND MCL-1 SPLICING TO INDUCE APOPTOSIS IN ACUTE MYELOID LEUKEMIA” (University of Virginia Patent Foundation, priority 2019, published 2022):
# Experiments:
# [1] = system: primary AML patient samples; test: Apoptosis by flow cytometry (Annexin V); format: cell-based, human; details: seven patient samples; 48-hour treatment
# Procedure: (§1) Apoptosis in cell lines was assessed after treating 2.5×10^5 cells per ml with drug or vehicle in a 48-well plate for the indicated time points and doses. Primary human AML cells were pre-incubated with SFEM for 48 hours before plating 2×10^5 cells in 24-well plates for the indicated times point and doses. Samples were stained using the Muse Annexin V & Dead Cell Kit (Millipore #MCH100105). Change in mitochondrial membrane potential in cell lines was measured with the Muse® MitoPotential Kit (#MCH100110, MilliporeSigma, Burlington, Mass., United States of America). Caspase activation was measured using the Muse® Caspase 3/7 Assay Kit (#MCH100108, MilliporeSigma, Burlington, Mass., United States of America). For rescue experiments, cells were plated at 2.5×10^4 well in a 96-well plate 24 hours after electroporation. Cells were treated with DMSO or […] for 48 hours and apoptosis was detected as stated above. All kits were used according to manufacturer's protocol. Cells were then analyzed using the Muse® Cell Analyzer (MilliporeSigma, Burlington, Massachusetts, United States of America) (35,36). Experiments included positive and negative controls for proper analysis.
# [2] = Pharmacokinetics, SACLAC in blood/serum by mass spectrometry; format: in vivo
# Procedure: More particularly, maximum tolerated dose of SACLAC was determined in NOD-scid IL2Rgamma^null (NSG) mice (n=5; Jackson Laboratories, Bar Harbor, Me., United States of America). Mice were injected with SACLAC reconstituted in β-HPCD (IV) daily for 5 days at a dose of 5 mg/kg body weight, respectively. For pharmacokinetics studies, Swiss Webster mice (n=3; Charles River Laboratories, Wilmington, Mass., United States of America) were injected with SACLAC dissolved in DMSO (40 mg/kg body weight, intraperitoneally) or dissolved in β-HPCD (5 mg/kg body weight, via tail-vein injection). Mice were euthanized and blood was harvested at time points ranging from 0 to 48 hours. Serum concentration of SACLAC was measured by mass spectrometry quantification relative to SACLAC standard using the method referenced above.
# OCI-AML2 cells [3] = test: Mitochondrial membrane potential (Muse MitoPotential Kit); format: cell-based, human; details: SACLAC 5 μM; time course
# Procedure: as §1
# [4] = system: THP-1, HL60-VCR and KG1a cell lines; test: Western blot of SF3B1 and Mcl-1S/L in further cell lines; format: cell-based, human; details: 20 μM SACLAC; 48 hours; all three cell lines
# Procedure: (§2) Cells were plated at 2.5×10^5 cells per ml in 6-well plates and treated with drug, vehicle or siRNA at the indicated doses and time points. Cells were harvested, washed with PBS and lysed prior to preparation of protein extracts for western blotting.
# More particularly, cells were lysed with RIPA buffer (#R0278, Sigma, St. Louis, Mo., United States of America) containing phosphatase inhibitor cocktails 2 and 3 (Sigma #P5726, #P0044) and protease inhibitor cocktail (#P8340, Sigma, St. Louis, Mo., United States of America). Protein was quantified using a bicinchoninic acid (BCA) protein assay kit (#23225, Pierce, Waltham, Mass., United States of America). Samples were resolved on a Bolt 4-12% SDS-PAGE gel (#NW00082, ThermoFisher Scientific, Waltham, Mass., United States of America) and transferred to PVDF membrane (#170-4274, Bio-Rad Laboratories, Hercules, Calif., United States of America). Antibodies were obtained from Cell Signaling Technology (Danvers, Mass., United States of America) unless indicated otherwise. […] Quantification was done using Bio-Rad ImageLab 6.0.1 software (Bio-Rad Laboratories, Hercules, Calif., United States of America). For quantification, bands were normalized to β-actin as a loading control.
# OCI-AML2 cells [5] = test: Western blot of SF3B1, Mcl-1S and Mcl-1L protein expression; format: cell-based, human; details: 24 hours
# Procedure: as §2
# More particularly, cells were lysed with RIPA buffer (#R0278, Sigma, St. Louis, Mo., United States of America) containing phosphatase inhibitor cocktails 2 and 3 (Sigma #P5726, #P0044) and protease inhibitor cocktail (#P8340, Sigma, St. Louis, Mo., United States of America). Protein was quantified using a bicinchoninic acid (BCA) protein assay kit (#23225, Pierce, Waltham, Mass., United States of America). Samples were resolved on a Bolt 4-12% SDS-PAGE gel (#NW00082, ThermoFisher Scientific, Waltham, Mass., United States of America) and transferred to PVDF membrane (#170-4274, Bio-Rad Laboratories, Hercules, Calif., United States of America). Antibodies were obtained from Cell Signaling Technology (Danvers, Mass., United States of America) unless indicated otherwise. Primary antibodies used were: Mcl-1 (#5453, RRID #AB 10694494), SF3B1 (#14434, RRID #AB 2798479), β-actin (#3700, RRID #AB_2242334) and AC (BD Biosciences #612302 (San Jose, California, United States of America), RRID #AB_399617). Secondary antibodies used were HRP-linked goat anti-mouse (#7076, RRID #AB_330924) or goat anti-rabbit IgG (#7074, RRID # AB_2099233). Clarity Max Western ECL Substrate (#1705062, Bio-Rad Laboratories, Hercules, Calif., United States of America) was added to visualize relative protein expression by chemiluminescence using the Bio-Rad ChemiDoc MP imaging system (Bio-Rad Laboratories, Hercules, Calif., United States of America). Quantification was done using Bio-Rad ImageLab 6.0.1 software (Bio-Rad Laboratories, Hercules, Calif., United States of America). For quantification, bands were normalized to β-actin as a loading control.
# [6] = system: primary AML patient samples; test: Colony forming assay; format: cell-based, human; details: six primary patient samples
# Procedure: Cryopreserved human AML patient samples were thawed and washed twice with RPMI 1640 supplemented with 2% heat inactivated fetal bovine serum (FBS). After washes, cells were cultured in triplicate in 12-well plates at a density of 0.1 to 2×10^5 cells per well in Human Methylcellulose Complete Media (#HSC003R&D Systems, Minneapolis, Minnesota, United States of America). Plating densities were selected for each case to yield colony outgrowth of 20-100 colonies per well. The desired cell number and dose of SACLAC or DMSO was added to the culture media and dispensed to multi-well plates. Colonies were propagated for 10-14 days and blast colonies (>20 cells) were counted in a blinded manner under the light microscope.
smiles,measurement,setting,value
"CCCCCCCCCCCCCCC[C@@H](O)[C@H](CO)NC(=O)CCl [SACLAC, N-[(2S,3R)-1,3-dihydroxyoctadecan-2-yl]2-chloroacetamide]",apoptosis reached by more than half the samples,[1],≥ 80%
same,"maximal serum concentration, IV vs IP delivery",[2]; 5 mg/kg i.v. in β-HPCD vs 40 mg/kg i.p. in DMSO,higher maximal serum concentration than IP delivery
same,half-life in the blood,[2]; 40 mg/kg i.p. in DMSO or 5 mg/kg i.v. in β-HPCD,short half-life
same,peak serum SACLAC levels,[2]; after changing administration route and vehicle,less than 1 μM
same,uptake following i.p. injection,"[2]; mouse, in vivo, ip",suboptimal uptake
same,loss of mitochondrial membrane potential,OCI-AML2 cells [3],occurred in parallel with positive staining for the apoptosis marker annexin V
same,SF3B1 levels,[4],reduced
same,ratio of Mcl-1S/L,[4],increased
same,SF3B1 protein expression,OCI-AML2 cells [5]; SACLAC,reduced
same,splicing factor SRSF1,OCI-AML2 cells [5]; SACLAC,not affected
same,increase in the ratio of Mcl-1S to Mcl-1L,OCI-AML2 cells [5]; increasing doses of SACLAC,3 fold
same,upregulation of the Mcl-1S isoform,OCI-AML2 cells [5]; increasing doses of SACLAC,10 fold
same,colony formation decreased (average),[6]; 5 μM,32%
same,colony formation decreased (average),[6]; 20 μM,69%
